# Laboratory results from PubChem BioAssay AID1259407 (Chemical Carcinogenesis Research Information System (CCRIS), 2018).
# Calls of active or inactive are those of the source. No rule for the calls is given here.
# System: CCRIS mutagenicity, Ames/micronucleus/aberration tests
# Assay: CCRIS mutagenicity studies
# [1] = Test System: AMES SALMONELLA TYPHIMURIUM, Strain/Indicator: TA98, Metabolic Activation: NONE, Method: PREINCUBATION
# [2] = Test System: AMES SALMONELLA TYPHIMURIUM, Strain/Indicator: TA98, Metabolic Activation: RAT, LIVER, S-9, AROCLOR 1254, Method: PREINCUBATION
# [3] = Test System: AMES SALMONELLA TYPHIMURIUM, Strain/Indicator: TA100, Metabolic Activation: NONE, Method: PREINCUBATION
# [4] = Test System: AMES SALMONELLA TYPHIMURIUM, Strain/Indicator: TA100, Metabolic Activation: RAT, LIVER, S-9, AROCLOR 1254, Method: PREINCUBATION
# [5] = Test System: AMES SALMONELLA TYPHIMURIUM, Strain/Indicator: TA1535, Metabolic Activation: NONE, Method: PREINCUBATION
# [6] = Test System: AMES SALMONELLA TYPHIMURIUM, Strain/Indicator: TA1535, Metabolic Activation: RAT, LIVER, S-9, AROCLOR 1254, Method: PREINCUBATION
# [7] = Test System: AMES SALMONELLA TYPHIMURIUM, Strain/Indicator: TA1537, Metabolic Activation: NONE, Method: PREINCUBATION
# [8] = Test System: AMES SALMONELLA TYPHIMURIUM, Strain/Indicator: TA1537, Metabolic Activation: RAT, LIVER, S-9, AROCLOR 1254, Method: PREINCUBATION
# [9] = Test System: AMES SALMONELLA TYPHIMURIUM, Strain/Indicator: TA1538, Metabolic Activation: NONE, Method: PREINCUBATION
# [10] = Test System: AMES SALMONELLA TYPHIMURIUM, Strain/Indicator: TA1538, Metabolic Activation: RAT, LIVER, S-9, AROCLOR 1254, Method: PREINCUBATION
smiles,measurement,setting,value
Cl/C=C(\Cl)c1c(Cl)c(Cl)c(Cl)c(Cl)c1Cl,mutagenic call,"Test System: AMES SALMONELLA TYPHIMURIUM, Strain/Indicator: TA98, Metabolic Activation: NONE, Method: STANDARD PLATE",inactive; negative
same,mutagenic call,"Test System: AMES SALMONELLA TYPHIMURIUM, Strain/Indicator: TA98, Metabolic Activation: RAT, LIVER, S-9, AROCLOR 1254, Method: STANDARD PLATE",inactive; negative
same,mutagenic call,"Test System: AMES SALMONELLA TYPHIMURIUM, Strain/Indicator: TA100, Metabolic Activation: NONE, Method: STANDARD PLATE",inactive; negative
same,mutagenic call,"Test System: AMES SALMONELLA TYPHIMURIUM, Strain/Indicator: TA100, Metabolic Activation: RAT, LIVER, S-9, AROCLOR 1254, Method: STANDARD PLATE",inactive; negative
O=[N+]([O-])c1ccc2nc3c([N+](=O)[O-])cccc3nc2c1,mutagenic call,"Test System: AMES SALMONELLA TYPHIMURIUM, Strain/Indicator: TA98(NR), Metabolic Activation: NONE, Method: PREINCUBATION",active; positive
same,mutagenic call,[1],active; positive
O=c1[nH]c(=O)n([C@H]2C[C@H](O)[C@@H](CO)O2)cc1CCCCl,mutagenic call,"Test System: AMES SALMONELLA TYPHIMURIUM, Strain/Indicator: TA97, Metabolic Activation: NONE, Method: PREINCUBATION",inactive; negative
same,mutagenic call,"Test System: AMES SALMONELLA TYPHIMURIUM, Strain/Indicator: TA97, Metabolic Activation: RAT, LIVER, S-9, AROCLOR 1254, Method: PREINCUBATION",inactive; negative
same,mutagenic call,[1],inactive; negative
same,mutagenic call,[2],inactive; negative
same,mutagenic call,[3],inactive; negative
same,mutagenic call,[4],inactive; negative
same,mutagenic call,"Test System: AMES SALMONELLA TYPHIMURIUM, Strain/Indicator: TA102, Metabolic Activation: NONE, Method: PREINCUBATION",inactive; negative
same,mutagenic call,"Test System: AMES SALMONELLA TYPHIMURIUM, Strain/Indicator: TA102, Metabolic Activation: RAT, LIVER, S-9, AROCLOR 1254, Method: PREINCUBATION",inactive; negative
same,mutagenic call,"Test System: AMES SALMONELLA TYPHIMURIUM, Strain/Indicator: TA104, Metabolic Activation: NONE, Method: PREINCUBATION",inactive; negative
same,mutagenic call,"Test System: AMES SALMONELLA TYPHIMURIUM, Strain/Indicator: TA104, Metabolic Activation: RAT, LIVER, S-9, AROCLOR 1254, Method: PREINCUBATION",inactive; negative
same,mutagenic call,[5],inactive; negative
same,mutagenic call,[6],inactive; negative
same,mutagenic call,[7],inactive; negative
same,mutagenic call,[8],inactive; negative
same,mutagenic call,[9],inactive; negative
same,mutagenic call,[10],inactive; negative
same,mutagenic call,"Test System: CHINESE HAMSTER V-79, Strain/Indicator: V-79/8-AZAGUANINE, Metabolic Activation: NONE",inactive; negative
CCOP(=S)(OCC)Oc1nc(Cl)c(Cl)cc1Cl,mutagenic call,"End Point: In vitro chromosomal aberrations, Test System: Human lymphocytes, Metabolic Activation: None",active; positive (structural changes and ploidy)
same,mutagenic call,[1],inactive; negative
same,mutagenic call,[2],inactive; negative
same,mutagenic call,[3],inactive; negative
same,mutagenic call,[4],inactive; negative
same,mutagenic call,[5],inactive; negative
same,mutagenic call,[6],inactive; negative
same,mutagenic call,[7],inactive; negative
same,mutagenic call,[8],inactive; negative
same,mutagenic call,[9],inactive; negative
same,mutagenic call,[10],inactive; negative
same,mutagenic call,"Test System: CHINESE HAMSTER OVARY, Strain/Indicator: CHO-K1-BH4 (HGPRT)/6-THIOGUANINE, Metabolic Activation: NONE",inactive; negative
same,mutagenic call,"Test System: CHINESE HAMSTER OVARY, Strain/Indicator: CHO-K1-BH4 (HGPRT)/6-THIOGUANINE, Metabolic Activation: RAT, LIVER , S-9, AROCLOR 1254",inactive; negative
same,mutagenic call,"Test System: UDS RAT PRIMARY HEPATOCYTES, Strain/Indicator: THY INCORP, Metabolic Activation: NONE, Method: AUTORADIOGRAPHY",inactive; negative
C/C=C1/C[C@@H](C)[C@@](C)(O)C(=O)OC/C2=C/CN(C)CC[C@@H](OC1=O)C2=O,mutagenic call,"Test System: AMES SALMONELLA TYPHIMURIUM, Strain/Indicator: TA100, Metabolic Activation: HAMSTER, LIVER, S-9, PCB, Method: PREINCUBATION",active; positive
same,mutagenic call,"Test System: AMES SALMONELLA TYPHIMURIUM, Strain/Indicator: TA100, Metabolic Activation: RAT, LIVER, S-9, PCB, Method: PREINCUBATION",active; positive
same,mutagenic call,"Test System: UDS HAMSTER HEPATOCYTES, Strain/Indicator: THY INCORP, Metabolic Activation: NONE, Method: AUTORADIOGRAPHY",active; positive
same,mutagenic call,"Test System: UDS MOUSE HEPATOCYTES, Strain/Indicator: THY INCORP, Metabolic Activation: NONE, Method: AUTORADIOGRAPHY",active; positive
same,mutagenic call,"Test System: UDS RAT HEPATOCYTES, Strain/Indicator: THY INCORP, Metabolic Activation: NONE, Method: AUTORADIOGRAPHY",active; positive
N#CCc1cn(N=O)c2ccccc12,mutagenic call,"Test System: AMES SALMONELLA TYPHIMURIUM, Strain/Indicator: TA100, Metabolic Activation: NONE",active; positive
same,mutagenic call,"Test System: AMES SALMONELLA TYPHIMURIUM, Strain/Indicator: TA100, Metabolic Activation: S-9",active; positive
